How the values were obtained:
Format in all cases: in vivo
Crabgrass = test: Pre-emergent herbicidal test; settings: 4 WAT
Protocol: (§1) The pre-emergent test was conducted as follows:
(§2) A good grade of top soil was placed in aluminum pans and compacted to a depth of three-eighths to one-half inch from the top of the pan. On the top of the soil was placed a predetermined number of seeds or vegetative propagules of various plant species which were pressed into the soil surface. The soil required to level fill the pans after seeding or adding vegetative propagules was weighed into a pan. A known amount of the active ingredient applied in a solvent or as a wettable powder and the soil were thoroughly mixed, and used as a cover layer for prepared pans.
(§3) The herbicidal rating was obtained by means of a fixed scale based on the percent injury of each plant species. The ratings are defined as follows: […]

Hemp Sesbania = test: Pre-emergent herbicidal test; settings: 4 WAT
Protocol: as §1, §2, §3

Panicum Spp. = test: Pre-emergent herbicidal test; settings: 4 WAT
Protocol: as §1, §2, §3

Rice = test: Pre-emergent herbicidal test; settings: 4 WAT
Protocol: as §1, §2, §3

Sorghum = test: Pre-emergent herbicidal test; settings: 4 WAT
Protocol: as §1, §2, §3

Soybean = test: Pre-emergent herbicidal test; settings: 4 WAT
Protocol: as §1, §2, §3

Sugarbeet = test: Pre-emergent herbicidal test; settings: 4 WAT
Protocol: as §1, §2, §3

Wheat = test: Pre-emergent herbicidal test; settings: 4 WAT
Protocol: as §1, §2, §3

Wild Buckwheat = test: Pre-emergent herbicidal test; settings: 4 WAT
Protocol: as §1, §2, §3

Barnyardgrass [1] = test: Pre-emergent herbicidal test; settings: 4 WAT
Protocol: as §1, §2, §3
(§4) The compounds were also tested by utilizing the above procedure on the following plant species: […]

Canada Thistle [2] = test: Pre-emergent herbicidal test; settings: 4 WAT, 11.2 kg/h
Protocol: as §1, §2, §3, §4

Cocklebur [3] = test: Pre-emergent herbicidal test; settings: 4 WAT
Protocol: as §1, §2, §3, §4

Downy Brome [4] = test: Pre-emergent herbicidal test; settings: 4 WAT
Protocol: as §1, §2, §3, §4

Johnsongrass [5] = test: Pre-emergent herbicidal test; settings: 4 WAT, 11.2 kg/h
Protocol: as §1, §2, §3, §4

Lambsquarters [6] = test: Pre-emergent herbicidal test; settings: 4 WAT
Protocol: as §1, §2, §3, §4

Morningglory [7] = test: Pre-emergent herbicidal test; settings: 4 WAT
Protocol: as §1, §2, §3, §4

Quackgrass [8] = test: Pre-emergent herbicidal test; settings: 4 WAT, 11.2 kg/h
Protocol: as §1, §2, §3, §4

Smartweed [9] = test: Pre-emergent herbicidal test; settings: 4 WAT
Protocol: as §1, §2, §3, §4

Velvetleaf [10] = test: Pre-emergent herbicidal test; settings: 4 WAT
Protocol: as §1, §2, §3, §4

Yellow Nutsedge [11] = test: Pre-emergent herbicidal test; settings: 4 WAT, 11.2 kg/h
Protocol: as §1, §2, §3, §4

Barnyardgrass [12] = test: Post-emergent herbicidal test; settings: 4 WAT, 11.2 kg/h
Protocol: (§5) The post-emergent tests were conducted as follows:
(§6) The active ingredients are applied in spray form to two or three week old specimens of various plant species. The spray, a solution or wettable powder suspension containing the appropriate rate of active ingredient to give the desired test rate and a surfactant, is applied to the plants.
as §4

Canada Thistle [13] = test: Post-emergent herbicidal test; settings: 4 WAT, 11.2 kg/h
Protocol: as §5, §6, §4

Cocklebur [14] = test: Post-emergent herbicidal test; settings: 4 WAT, 11.2 kg/h
Protocol: as §5, §6, §4

Downy Brome [15] = test: Post-emergent herbicidal test; settings: 4 WAT, 11.2 kg/h
Protocol: as §5, §6, §4

Johnsongrass [16] = test: Post-emergent herbicidal test; settings: 4 WAT, 11.2 kg/h
Protocol: as §5, §6, §4

Lambsquarters [17] = test: Post-emergent herbicidal test; settings: 4 WAT, 11.2 kg/h
Protocol: as §5, §6, §4

Morningglory [18] = test: Post-emergent herbicidal test; settings: 4 WAT, 11.2 kg/h
Protocol: as §5, §6, §4

Quackgrass [19] = test: Post-emergent herbicidal test; settings: 4 WAT, 11.2 kg/h
Protocol: as §5, §6, §4

Smartweed [20] = test: Post-emergent herbicidal test; settings: 4 WAT, 11.2 kg/h
Protocol: as §5, §6, §4

Velvetleaf [21] = test: Post-emergent herbicidal test; settings: 4 WAT, 11.2 kg/h
Protocol: as §5, §6, §4

Yellow Nutsedge [22] = test: Post-emergent herbicidal test; settings: 4 WAT, 11.2 kg/h
Protocol: as §5, §6, §4
Also: ranges in brackets are in %.

Compound: O=C(O)c1ccccc1-c1cc(-c2cccc(C(F)(F)F)c2)no1 [Example 11, 2-[3-(3-Trifluoromethylphenyl)-5-Isoxazolyl]Benzoic Acid]
- herbicidal rating (Crabgrass; 1.12 kg/h): 2 (50-74)
- herbicidal rating (Crabgrass; 5.60 kg/h): 3 (75-100)
- herbicidal rating (Hemp Sesbania; 1.12 kg/h): 3 (75-100)
- herbicidal rating (Hemp Sesbania; 5.60 kg/h): 2 (50-74)
- herbicidal rating (Panicum Spp.; 1.12 kg/h): 2 (50-74)
- herbicidal rating (Panicum Spp.; 5.60 kg/h): 3 (75-100)
- herbicidal rating (Rice; 1.12 kg/h): 3 (75-100)
- herbicidal rating (Rice; 5.60 kg/h): 3 (75-100)
- herbicidal rating (Sorghum; 1.12 kg/h): 1 (25-49)
- herbicidal rating (Sorghum; 5.60 kg/h): 3 (75-100)
- herbicidal rating (Soybean; 1.12 kg/h): 3 (75-100)
- herbicidal rating (Soybean; 5.60 kg/h): 3 (75-100)
- herbicidal rating (Sugarbeet; 1.12 kg/h): 2 (50-74)
- herbicidal rating (Sugarbeet; 5.60 kg/h): 2 (50-74)
- herbicidal rating (Wheat; 1.12 kg/h): 0 (0-24)
- herbicidal rating (Wheat; 5.60 kg/h): 1 (25-49)
- herbicidal rating (Wild Buckwheat; 1.12 kg/h): 2 (50-74)
- herbicidal rating (Wild Buckwheat; 5.60 kg/h): 3 (75-100)
- herbicidal rating (Barnyardgrass [1]; 1.12 kg/h): 3 (75-100)
- herbicidal rating (Barnyardgrass [1]; 5.60 kg/h): 2 (50-74)
- herbicidal rating (Barnyardgrass [1]; 11.2 kg/h): 3 (75-100)
- herbicidal rating (Canada Thistle [2]): 3 (75-100)
- herbicidal rating (Cocklebur [3]; 1.12 kg/h): 0 (0-24)
- herbicidal rating (Cocklebur [3]; 5.60 kg/h): 1 (25-49)
- herbicidal rating (Cocklebur [3]; 11.2 kg/h): 3 (75-100)
- herbicidal rating (Downy Brome [4]; 1.12 kg/h): 2 (50-74)
- herbicidal rating (Downy Brome [4]; 5.60 kg/h): 2 (50-74)
- herbicidal rating (Downy Brome [4]; 11.2 kg/h): 3 (75-100)
- herbicidal rating (Johnsongrass [5]): 0 (0-24)
- herbicidal rating (Lambsquarters [6]; 1.12 kg/h): 2 (50-74)
- herbicidal rating (Lambsquarters [6]; 5.60 kg/h): 3 (75-100)
- herbicidal rating (Lambsquarters [6]; 11.2 kg/h): 2 (50-74)
- herbicidal rating (Morningglory [7]; 1.12 kg/h): 1 (25-49)
- herbicidal rating (Morningglory [7]; 5.60 kg/h): 2 (50-74)
- herbicidal rating (Morningglory [7]; 11.2 kg/h): 2 (50-74)
- herbicidal rating (Quackgrass [8]): 3 (75-100)
- herbicidal rating (Smartweed [9]; 1.12 kg/h): 2 (50-74)
- herbicidal rating (Smartweed [9]; 5.60 kg/h): 3 (75-100)
- herbicidal rating (Smartweed [9]; 11.2 kg/h): 3 (75-100)
- herbicidal rating (Velvetleaf [10]; 1.12 kg/h): 1 (25-49)
- herbicidal rating (Velvetleaf [10]; 5.60 kg/h): 2 (50-74)
- herbicidal rating (Velvetleaf [10]; 11.2 kg/h): 3 (75-100)
- herbicidal rating (Yellow Nutsedge [11]): 1 (25-49)
- herbicidal rating (Barnyardgrass [12]): 2 (50-74)
- herbicidal rating (Canada Thistle [13]): 1 (25-49)
- herbicidal rating (Cocklebur [14]): 1 (25-49)
- herbicidal rating (Downy Brome [15]): 2 (50-74)
- herbicidal rating (Johnsongrass [16]): 1 (25-49)
- herbicidal rating (Lambsquarters [17]): 2 (50-74)
- herbicidal rating (Morningglory [18]): 1 (25-49)
- herbicidal rating (Quackgrass [19]): 0 (0-24)
- herbicidal rating (Smartweed [20]): 2 (50-74)
- herbicidal rating (Velvetleaf [21]): 1 (25-49)
- herbicidal rating (Yellow Nutsedge [22]): 1 (25-49)

Source: patent publication US4229204A, “Trifluoromethylphenyl isoxazolyl benzoates” (Monsanto Company, priority 1978, dated 1980)
